The source of these data is US9255090B2, “Heterocyclyl derivatives and their use as prostaglandin D2 receptor modulators” (Actelion Pharmaceuticals Ltd., priority 2012, dated 2016).

In the assay the target is hCRTH2 receptor (Homo sapiens (Human), UniProt Q9Y5Y4). Nature of the assay: hCRTH2 receptor membranes radioligand (3H-PGD2) displacement assay. The class given is binding. The conditions noted are these: 3H-PGD2 radioligand displacement, HEK293-hCRTH2 membranes. In outline: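 HEK293-hCRTH2 membranes, 20 μg/well; 3H-PGD2 added at 2.5 nM; binding buffer 50 mM Tris, 10 mM MnCl2, 1 mM EDTA, pH 7.0; 90 min RT; GF/C filtration, scintillation count. Nonspecific binding: PGD2 at […].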
(In general: In a radioligand displacement assay an active substance lowers the binding of a labelled ligand.)

Chain of hCRTH2 receptor (Q9Y5Y4 whole entry): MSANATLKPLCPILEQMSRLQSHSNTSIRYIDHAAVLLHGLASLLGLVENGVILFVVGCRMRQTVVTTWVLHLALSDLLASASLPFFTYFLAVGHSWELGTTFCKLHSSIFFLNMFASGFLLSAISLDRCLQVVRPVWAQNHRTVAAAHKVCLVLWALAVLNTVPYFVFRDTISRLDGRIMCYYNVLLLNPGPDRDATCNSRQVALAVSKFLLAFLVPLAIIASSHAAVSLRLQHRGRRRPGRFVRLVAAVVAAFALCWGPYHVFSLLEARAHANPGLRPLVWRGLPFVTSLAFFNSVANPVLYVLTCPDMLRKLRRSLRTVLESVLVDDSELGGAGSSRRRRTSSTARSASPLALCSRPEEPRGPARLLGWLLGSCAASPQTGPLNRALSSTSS

What is called IC50 is the concentration needed to halve the response being measured. Read a high IC50 as weaker potency in that assay. Regarding `COc1cc(CC(=O)O)ccc1-c1ccc(F)c2c1CN(C(=O)CCc1c(C)[nH]c3ccccc13)CC2` [Example 186, (4-{5-Fluoro-2-[3-(2-methyl-1H-indol-3-yl)-propionyl]-1,2,3,4-tetrahydro-isoquinolin-8-yl}-3-methoxy-phenyl)-acetic acid], the IC50 worked out at 2.66 nM.
For `CC(C)Oc1ccc(CC(=O)O)cc1-c1ccc(F)c2c1CN(C(=O)CC(C)(C)c1ccccc1)CC2` [Example 291, {3-[5-Fluoro-2-(3-methyl-3-phenyl-butyryl)-1,2,3,4-tetrahydro-isoquinolin-8-yl]-4-isopropoxy-phenyl}-acetic acid], the IC50 is 5.9 nM.
With `O=C(O)Cc1ccc(OCC(F)(F)F)c(-c2ccc(F)c3c2CN(C(=O)[C@@H]2C[C@H]2c2ccccc2)CC3)c1` [Example 426, [3-[5-Fluoro-2-((1R,2R)-2-phenyl-cyclopropanecarbonyl)-1,2,3,4-tetrahydro-isoquinolin-8-yl]-4-(2,2,2-trifluoro-ethoxy)-phenyl]-acetic acid], the IC50 was found to be 1.9 nM.
As for `O=C(O)Cc1ccc(-c2ccc(F)c3c2CN(C(=O)CC2CCOc4ccccc42)CC3)c(OCC(F)(F)F)c1` (racemic) [Example 285], the figure is 3.5 nM; as for `O=C(O)Cc1cc(-c2ccc(F)c3c2CN(C(=O)OCc2ccccc2)CC3)ccc1Cl` [Example 11, 8-(3-Carboxymethyl-4-chloro-phenyl)-5-fluoro-3,4-dihydro-1H-isoquinoline-2-carboxylic acid benzyl ester], 69.1 nM; as for `CCOc1ccc(CC(=O)O)cc1-c1ccc(F)c2c1CN(C(=O)CC1CC(C)(C)Oc3ncccc31)CC2` (racemic) [Example 284], 2.4 nM.
The molecule `CCOc1ccc(CC(=O)O)cc1-c1ccc(F)c2c1CN(C(=O)NCc1ccccc1F)CC2` [Example 432, {4-Ethoxy-3-[5-fluoro-2-(2-fluoro-benzylcarbamoyl)-1,2,3,4-tetrahydro-isoquinolin-8-yl]-phenyl}-acetic acid] showed an IC50 of 5.3 nM.
`Cc1cccc(CCC(=O)N2CCc3c(F)ccc(-c4cc(CC(=O)O)ccc4OC(C)C)c3C2)n1` [Example 295, (3-{5-Fluoro-2-[3-(6-methyl-pyridin-2-yl)-propionyl]-1,2,3,4-tetrahydro-isoquinolin-8-yl}-4-isopropoxy-phenyl)-acetic acid]: the IC50 worked out at 1.7 nM. This IC50 lies about 3.1-fold lower than the previous one.
The value for `CC(C)Oc1ccc(OCC(=O)O)cc1-c1ccc(F)c2c1CN(C(=O)[C@@H]1C[C@H]1c1ccccc1)CC2` [Example 161, {3-[5-Fluoro-2-((1R,2R)-2-phenyl-cyclopropanecarbonyl)-1,2,3,4-tetrahydro-isoquinolin-8-yl]-4-isopropoxy-phenoxy}-acetic acid] was 1.38 nM.
Regarding `CCOc1cc(CC(=O)O)ccc1-c1ccc(F)c2c1CN(C(=O)NCc1cccc(F)c1)CC2` [Example 441, {3-Ethoxy-4-[5-fluoro-2-(3-fluoro-benzylcarbamoyl)-1,2,3,4-tetrahydro-isoquinolin-8-yl]-phenyl}-acetic acid], the IC50 came to 17.5 nM.
As for `COc1ccc(CC(=O)O)cc1-c1ccc(F)c2c1CN(C(=O)OCc1cc(C)nn1C)CC2` [Example 149, 8-(5-Carboxymethyl-2-methoxy-phenyl)-5-fluoro-3,4-dihydro-1H-isoquinoline-2-carboxylic acid 2,5-dimethyl-2H-pyrazol-3-ylmethyl ester], the figure is 6.87 nM; as for `O=C(O)COc1ccc(Cl)c(-c2ccc(F)c3c2CN(C(=O)OCc2ccccc2)CC3)c1` [Example 176, 8-(5-Carboxymethoxy-2-chloro-phenyl)-5-fluoro-3,4-dihydro-1H-isoquinoline-2-carboxylic acid benzyl ester], 13.6 nM.
`COc1ccc(CC(=O)O)cc1-c1ccc(F)c2c1CN(C(=O)OCc1csc(C)n1)CC2` [Example 150, 8-(5-Carboxymethyl-2-methoxy-phenyl)-5-fluoro-3,4-dihydro-1H-isoquinoline-2-carboxylic acid 2-methyl-thiazol-4-ylmethyl ester] gave an IC50 of 7.12 nM.
Turning to `C[C@@H](CC(=O)N1CCc2c(F)ccc(-c3ccc(CC(=O)O)cc3OCC(F)(F)F)c2C1)c1ccccc1` [Example 287, [4-[5-Fluoro-2-((S)-3-phenyl-butyryl)-1,2,3,4-tetrahydro-isoquinolin-8-yl]-3-(2,2,2-trifluoro-ethoxy)-phenyl]-acetic acid], the IC50 is 8.1 nM.
Take `COc1ccc(CC(=O)O)cc1-c1ccc(F)c2c1CN(C(=O)NCc1ccccc1Cl)CC2` [Example 134, {3-[2-(2-Chloro-benzylcarbamoyl)-5-fluoro-1,2,3,4-tetrahydro-isoquinolin-8-yl]-4-methoxy-phenyl}-acetic acid]: the IC50 stood at 21.5 nM.
As for `O=C(O)Cc1ccc(Cl)cc1-c1ccc(F)c2c1CN(C(=O)OCc1ccccc1)CC2` [Example 416, 8-(2-Carboxymethyl-5-chloro-phenyl)-5-fluoro-3,4-dihydro-1H-isoquinoline-2-carboxylic acid benzyl ester], the IC50 was 575 nM.
Take `COc1ccc(CC(=O)O)cc1-c1ccc(F)c2c1CN(C(=O)C(C)Cc1ccccc1)CC2` (racemic) [Example 109, (±)-{3-[5-Fluoro-2-(2-methyl-3-phenyl-propionyl)-1,2,3,4-tetrahydro-isoquinolin-8-yl]-4-methoxy-phenyl}-acetic acid]: the IC50 is 28.9 nM. This IC50 lies about 20-fold lower than the previous one.
In turn, `CCCNC(=O)N1CCc2c(F)ccc(-c3cc(CC(=O)O)ccc3OC)c2C1` [Example 137, [3-(5-Fluoro-2-propylcarbamoyl-1,2,3,4-tetrahydro-isoquinolin-8-yl)-4-methoxy-phenyl]-acetic acid] had an IC50 of 764 nM. This IC50 lies about 26-fold higher than the previous one.
The value for `COc1ccc(CC(=O)O)cc1-c1ccc(F)c2c1CCN(C(=O)CCCc1ccccc1)C2` [Example 100, {3-[8-Fluoro-2-(4-phenyl-butyryl)-1,2,3,4-tetrahydro-isoquinolin-5-yl]-4-methoxy-phenyl}-acetic acid] was 105 nM; that for `COc1ccc(CC(=O)O)cc1-c1ccc(F)c2c1CN(C(=O)Cc1n[nH]c3ccccc13)CC2` [Example 124, {3-[5-Fluoro-2-(2-1H-indazol-3-yl-acetyl)-1,2,3,4-tetrahydro-isoquinolin-8-yl]-4-methoxy-phenyl}-acetic acid] was 10.5 nM.
`CCOc1ccc(CC(=O)O)cc1-c1ccc(F)c2c1CN(C(=O)[C@@H]1C[C@H]1c1ccccc1)CC2` [Example 220, {4-Ethoxy-3-[5-fluoro-2-((1R,2R)-2-phenyl-cyclopropanecarbonyl)-1,2,3,4-tetrahydro-isoquinolin-8-yl]-phenyl}-acetic acid] displayed an IC50 of 13.5 nM. This IC50 and that of the molecule before are within 1.5-fold of each other.
Molecule `O=C(O)Cc1ccc(OCC(F)(F)F)c(-c2ccc(F)c3c2CN(C(=O)CC2COCc4ccccc42)CC3)c1` (racemic) [Example 305] yielded an IC50 of 3.4 nM.
`COc1ccc(CC(=O)O)cc1-c1ccc(F)c2c1CN(C(=O)CC(C)c1cccnc1)CC2` (racemic) [Example 266, (±)-{3-[5-Fluoro-2-(3-pyridin-3-yl-butyryl)-1,2,3,4-tetrahydro-isoquinolin-8-yl]-4-methoxy-phenyl}-acetic acid formiate] yielded a concentration for half-maximal inhibition (IC50) of 32.7 nM.
With `COc1ccc(CC(=O)O)cc1-c1ccc(F)c2c1CCN(C(=O)OCc1ccccc1)CC2` [Example 17, 6-(5-Carboxymethyl-2-methoxy-phenyl)-9-fluoro-1,2,4,5-tetrahydro-benzo[d]azepine-3-carboxylic acid benzyl ester], the IC50 was 141 nM.
As for `CCOc1cc(CC(=O)O)ccc1-c1ccc(F)c2c1CN(C(=O)CC1COc3ccccc3C1)CC2` (racemic) [Example 324], the figure is 0.9 nM; as for `CCOc1ccc(CC(=O)O)cc1-c1ccc(F)c2c1CN(C(=O)OCCC(C)(C)O)CC2` [Example 382, 8-(5-Carboxymethyl-2-ethoxy-phenyl)-5-fluoro-3,4-dihydro-1H-isoquinoline-2-carboxylic acid 3-hydroxy-3-methyl-butyl ester], 14 nM.
`COc1ccc2onc(CC(=O)N3CCc4c(F)ccc(-c5cc(CC(=O)O)ccc5OC)c4C3)c2c1` [Example 49, (3-{5-Fluoro-2-[2-(5-methoxy-benzo[d]isoxazol-3-yl)-acetyl]-1,2,3,4-tetrahydro-isoquinolin-8-yl}-4-methoxy-phenyl)-acetic acid] yielded an IC50 of 54 nM.
For the molecule `CCOc1cc(CC(=O)O)ccc1-c1ccc(F)c2c1CN(C(=O)CC1(C)CCCc3ccccc31)CC2` (racemic) [Example 326], the IC50 came to 2 nM.
The molecule `Cc1cccc(C(C)CC(=O)N2CCc3c(F)ccc(-c4cc(CC(=O)O)ccc4OC(C)C)c3C2)n1` (racemic) [Example 294] had an IC50 of 3.2 nM.
`CC(C)Oc1ccc(CC(=O)O)cc1-c1ccc(F)c2c1CN(C(=O)CC1OCCc3ccccc31)CC2` (racemic) [Example 297]: the IC50 came to 1.9 nM.
